Experimental data: patent US12655145B2, “P2X3 modulators” (GlaxoSmithKline Intellectual Property (No. 3) Limited, priority 2020, dated 2026)

What follows are compounds tested against T1, P2X3 (Homo sapiens, UniProt P56373) (assay: P2X3 Antagonist Assay (FLIPR calcium, Fluo-8, HEK293 cells transfected with human ion channel cDNAs, αβ-meATP stimulation)). Details: HEK293, @ 1 μM, antagonist mode, αβ-meATP 3 μM, read-out: P2X3 IC50 column, given as % @ 1 μM.
T1 construct: expressed in transfected cells; host or cells: HEK293
T1 sequence (P56373 1-397): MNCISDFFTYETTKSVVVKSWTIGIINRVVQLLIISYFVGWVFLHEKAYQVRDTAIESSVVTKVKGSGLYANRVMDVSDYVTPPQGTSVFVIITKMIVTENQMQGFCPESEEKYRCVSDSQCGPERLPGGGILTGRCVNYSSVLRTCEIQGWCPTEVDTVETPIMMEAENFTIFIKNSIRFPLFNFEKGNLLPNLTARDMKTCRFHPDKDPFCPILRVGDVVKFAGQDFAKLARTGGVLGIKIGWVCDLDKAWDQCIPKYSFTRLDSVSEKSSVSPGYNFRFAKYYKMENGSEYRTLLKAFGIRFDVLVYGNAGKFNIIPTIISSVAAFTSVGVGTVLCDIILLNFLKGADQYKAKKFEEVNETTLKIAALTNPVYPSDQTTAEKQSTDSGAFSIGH
Format: cell-based
Protocol: Example 59: P2X3 Antagonist Assay
HEK293 were transiently or stably transfected with human ion channel cDNAs as indicated in section 1. Stable transfectants were selected by coexpression with the antibiotic-resistance gene(s) incorporated into the expression plasmid(s). Selection pressure was maintained by including selection antibiotics in the culture medium. HEK293 cells were cultured in Dulbecco's Modified Eagle Medium/Nutrient Mixture F-12 (D-MEM/F-12) supplemented with 10% fetal bovine serum, 100 U/mL penicillin G sodium, 100 J·Lg/mL streptomycin sulfate and appropriate selection antibiotics.
The effect of each test article to act as an antagonist was evaluated. Each test article was evaluated at eight (8) concentrations (0.001, 0.003, 0.01, 0.03, 0.1, 0.3, 1 and 3 μM, n=3) with 4 replicates for each concentration. Experiments were performed with the FLIPR calcium sensitive dye kit (Fluo-8 dye, AAT, Bioquest) according to the manufacturer's instructions. • Dye-loading: Growth media will be removed and add 20 μL of Mg^++-free HBPS containing Fluo-8 for 30 min at 37° C. • Preincubation (FLIPR step 1): Adding 5× (5 μL) test, vehicle, or control article solutions in Mg^+-free HBPS to each well for 20 minutes at room temperature, protected from light. • Stimulation (FLIPR step 2): After pre-incubation, cells will be stimulated with 6× (5 μL) αβ-meATP at final concentration of 3 μM prepared in Mg^++-free HBPS. • Non-Specific Calcium Influx (FLIPR step 3): 5 minutes after stimulation solution addition, non-specific calcium influx will be activated by adding 7×(5 μL) ionomycin at a final concentration of 5 μM. Fluorescence will be recorded continuously during FLIPR steps 2 and 3. • Positive Control Antagonist: PPADS (1 mM).
Data acquisition was performed via the FLIPRControl software that is supplied with the FLIPR System (MDS-AT) and data was analyzed using Microsoft Excel2003 (Microsoft Corp., Redmond, WA).

Row | inhibition at 1 µM [%] | SMILES
1 | 50 | CNC(=O)c1ccc(-c2nc3cc(C4CC4)ccn3c2C[C@H]2CN(C(=O)OC)CCO2)c(F)c1 [Compound A52, methyl (S)-2-((7-cyclopropyl-2-(2-fluoro-4-(methylcarbamoyl)-phenyl)imidazo[1,2-a]pyridin-3-yl)methyl)morpholine-4-carboxylate]
2 | 16 | COC(=O)N1CCO[C@@H](Cc2c(-c3ccc([S+](C)[O-])cc3F)nc3cc(C)ccn23)C1 (stereo partly drawn) [Compound A58, methyl (2S)-2-((2-(2-fluoro-4-(methylsulfinyl)phenyl)-7-methyl-imidazo[1,2-a]pyridin-3-yl)methyl)morpholine-4-carboxylate]
3 | 20 | CNC(=O)c1cc(F)c(-c2nc3cc(C)ccn3c2CC2CCC(NC(C)=O)CC2)c(F)c1 (stereo not drawn) [cis-A21, 4-(3-((4-acetamidocyclohexyl)methyl)-7-methylimidazo[1,2-a]pyridin-2-yl)-3,5-difluoro-N-methylbenzamide]

Same assay, conditions: antagonist mode, αβ-meATP 3 μM

Row | SMILES | IC50 [nM]
4 | CNC(=O)c1ccc(-c2nc3cc(C(F)F)ccn3c2C[C@H]2CN(C(=O)OC)CCO2)c(F)c1 [Compound A42, methyl (S)-2-((7-(difluoromethyl)-2-(2-fluoro-4-(methylcarbamoyl)phenyl)imidazo[1,2-a]pyridin-3-yl)methyl)morpholine-4-carboxylate] | < 100
5 | CNC(=O)c1ccc(-c2nc3cc(C(F)F)ccn3c2C[C@H]2CN(C(=O)OC)CCO2)c(C)c1 [Compound A43, methyl (S)-2-((7-(difluoromethyl)-2-(2-methyl-4-(methylcarbamoyl)phenyl)imidazo[1,2-a]pyridin-3-yl)methyl)morpholine-4-carboxylate] | < 100
6 | CNC(=O)c1cc(C)c(-c2nc3cc(C(F)F)ccn3c2C[C@H]2CN(C(=O)OC)CCO2)cc1F [Compound A44, methyl (S)-2-((7-(difluoromethyl)-2-(5-fluoro-2-methyl-4-(meth-ylcarbamoyl)phenyl)imidazo[1,2-a]pyridin-3-yl)methyl)morpholine-4-carboxylate] | < 100
7 | CNC(=O)c1ccc(-c2nc3cc(S(C)(=O)=O)ccn3c2C[C@H]2CN(C(=O)OC)CCO2)c(F)c1 [Compound A48, methyl (S)-2-((2-(2-fluoro-4-(methylcarbamoyl)phenyl)-7-(methylsulfonyl)imidazo[1,2-a]-pyridin-3-yl)methyl)morpholine-4-carboxylate] | > 1000
8 | CNC(=O)c1ccc(-c2nc3cc(CF)ccn3c2C[C@H]2CN(C(=O)OC)CCO2)c(F)c1 [Compound A49, methyl (S)-2-((2-(2-fluoro-4-(methylcarbamoyl)phenyl)-7-(fluoromethyl)imidazo[1,2-a]pyridin-3-yl)methyl)morpholine-4-carboxylate] | 100 to 1000
9 | COC(=O)N1CCO[C@@H](Cc2c(-c3ccc(S(C)(=O)=O)cc3F)nc3cc(C)ccn23)C1 [Compound A61, methyl (S)-2-((2-(2-fluoro-4-(methylsulfonyl)phenyl)-7-methylimidazo[1,2-a]pyridin-3-yl)methyl)morpholine-4-carboxylate] | 100 to 1000
10 | COC(=O)N1CCO[C@@H](Cc2c(-c3ccc(C(=O)N4CC[C@H](O)C4)cc3F)nc3cc(Cl)ccn23)C1 [Compound A68, methyl (S)-2-((7-chloro-2-(2-fluoro-4-((S)-3-hydroxypyrrolidine-1-carbonyl)phenyl)imidazo[1,2-a]pyridin-3-yl)methyl)morpholine-4-carboxylate] | 100 to 1000
11 | CNC(=O)c1cc(F)c(-c2nc3cc(C)ccn3c2CC2CCC(NC(C)=O)CC2)c(F)c1 (stereo not drawn) [trans-A21, 4-(3-((4-acetamidocyclohexyl)methyl)-7-methylimidazo[1,2-a]pyridin-2-yl)-3,5-difluoro-N-methylbenzamide] | > 1000

Other lines, results leading:

Row | IC50 [nM] | SMILES
12 | < 100 | CCc1ccn2c(C[C@H]3CN(C(=O)OC)CCO3)c(-c3ccc(C(=O)NC)cc3F)nc2c1 [Compound A45, methyl (S)-2-((7-ethyl-2-(2-fluoro-4-(methylcarbamoyl)phenyl)imidazo[1,2-a]pyridin-3-yl)methyl)morpholine-4-carboxylate]
13 | 100 to 1000 | COC(=O)N1CCO[C@@H](Cc2c(-c3ccc(C(=O)N(C)C)cc3F)nc3cc(Cl)ccn23)C1 [Compound A65, methyl (S)-2-((7-chloro-2-(4-(dimethylcarbamoyl)-2-fluoro-phenyl)imidazo[1,2-a]pyridin-3-yl)methyl)morpholine-4-carboxylate]
14 | < 100 | CCN(C)C(=O)c1ccc(-c2nc3cc(Cl)ccn3c2C[C@H]2CN(C(=O)OC)CCO2)c(F)c1 [Compound A66, methyl (S)-2-((7-chloro-2-(4-(ethyl(methyl)carbamoyl)-2-fluoro-phenyl)imidazo[1,2-a]pyridin-3-yl)methyl)morpholine-4-carboxylate]
15 | 100 to 1000 | COC(=O)N1CCO[C@@H](Cc2c(-c3ccc(C(=O)N4CCCC4)cc3F)nc3cc(Cl)ccn23)C1 [Compound A67, methyl (S)-2-((7-chloro-2-(2-fluoro-4-(pyrrolidine-1-carbonyl)-phenyl)imidazo[1,2-a]pyridin-3-yl)methyl)morpholine-4-carboxylate]
16 | > 1000 | COC(=O)N1CCO[C@@H](Cc2c(-c3ccc(C(=O)N4CC[C@@H](O)C4)cc3F)nc3cc(Cl)ccn23)C1 [Compound A69, methyl (S)-2-((7-chloro-2-(2-fluoro-4-((R)-3-hydroxypyrrolidine-1-carbonyl)phenyl)imidazo[1,2-a]pyridin-3-yl)methyl)morpholine-4-carboxylate]
17 | > 1000 | COCCNC(=O)c1ccc(-c2nc3cc(Cl)ccn3c2C[C@H]2CN(C(=O)OC)CCO2)c(F)c1 [Compound A73, methyl (S)-2-((7-chloro-2-(2-fluoro-4-((2-methoxyethyl)carbamoyl)phenyl)imidazo[1,2-a]pyridin-3-yl)methyl)morpholine-4-carboxylate]
18 | 100 to 1000 | CNC(=O)c1ccc(-c2nc3cc(Cl)ccn3c2C[C@H]2CN(C(C)=O)CCO2)c(F)c1 [Compound A88, (S)-4-(3-((4-acetylmorpholin-2-yl)methyl)-7-chloroimidazo[1,2-a]pyridin-2-yl)-3-fluoro-N-methylbenzamide]
19 | 100 to 1000 | CCC(=O)N1CCO[C@@H](Cc2c(-c3ccc(C(=O)NC)cc3F)nc3cc(Cl)ccn23)C1 [Compound A89, (S)-4-(7-chloro-3-((4-propionylmorpholin-2-yl)methyl)imidazo-[1,2-a]pyridin-2-yl)-3-fluoro-N-methylbenzamide]
